Data as given in article PMC7355497 (Pharmaceutics, 2020).
Structures can show the parent of a compound that is named as a salt.

Legend:
P-gp = P-gp (Homo sapiens, UniProt P08183); details: 15 min, 10 μM
Experimental: The P-gp inhibition effect of anthraquinones from R. acetosa was evaluated via MDR assay kit using Caco-2 cells. […] The MDR dye-loading solution was added at a volume of 100 μL and incubated. Fluorescence intensity was detected with a microplate reader Synerge H1 (Biotek, Winooski, VT, USA) at a wavelength of 490 nm for the excitation and 525 nm for the emission.

[1] = cited from earlier work

Chain of P-gp (P08183 whole entry): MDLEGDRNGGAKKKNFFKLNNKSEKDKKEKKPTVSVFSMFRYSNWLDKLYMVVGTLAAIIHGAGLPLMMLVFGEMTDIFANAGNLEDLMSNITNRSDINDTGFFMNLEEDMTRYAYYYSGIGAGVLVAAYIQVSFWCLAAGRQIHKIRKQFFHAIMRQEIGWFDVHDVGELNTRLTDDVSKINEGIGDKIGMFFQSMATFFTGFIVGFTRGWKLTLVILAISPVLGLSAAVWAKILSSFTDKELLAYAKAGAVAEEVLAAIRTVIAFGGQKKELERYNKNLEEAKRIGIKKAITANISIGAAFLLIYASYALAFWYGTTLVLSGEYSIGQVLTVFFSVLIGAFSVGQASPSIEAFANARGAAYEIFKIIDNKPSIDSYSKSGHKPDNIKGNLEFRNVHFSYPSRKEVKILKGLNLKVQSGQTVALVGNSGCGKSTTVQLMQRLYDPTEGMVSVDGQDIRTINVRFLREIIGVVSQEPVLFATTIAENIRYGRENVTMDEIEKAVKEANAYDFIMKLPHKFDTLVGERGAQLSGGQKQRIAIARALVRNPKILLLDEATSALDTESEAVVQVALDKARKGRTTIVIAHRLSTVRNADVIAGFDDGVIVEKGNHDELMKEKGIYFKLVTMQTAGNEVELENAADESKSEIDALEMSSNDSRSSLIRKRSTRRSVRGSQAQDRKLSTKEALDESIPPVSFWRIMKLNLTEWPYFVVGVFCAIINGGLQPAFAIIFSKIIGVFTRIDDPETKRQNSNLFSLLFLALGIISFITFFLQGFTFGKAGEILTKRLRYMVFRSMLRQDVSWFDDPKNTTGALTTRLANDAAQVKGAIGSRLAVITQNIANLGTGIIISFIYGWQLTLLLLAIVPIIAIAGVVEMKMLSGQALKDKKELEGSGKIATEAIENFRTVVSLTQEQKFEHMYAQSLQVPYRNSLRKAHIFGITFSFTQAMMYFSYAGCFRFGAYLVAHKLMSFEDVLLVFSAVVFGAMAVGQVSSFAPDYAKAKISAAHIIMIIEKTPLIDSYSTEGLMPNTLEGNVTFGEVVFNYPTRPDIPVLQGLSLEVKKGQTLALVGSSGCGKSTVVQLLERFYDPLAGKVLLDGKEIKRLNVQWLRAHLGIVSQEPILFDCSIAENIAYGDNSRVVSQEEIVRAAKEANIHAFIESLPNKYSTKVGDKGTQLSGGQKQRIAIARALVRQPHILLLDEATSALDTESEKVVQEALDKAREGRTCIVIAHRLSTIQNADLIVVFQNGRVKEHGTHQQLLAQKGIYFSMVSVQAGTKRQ

SMILES	Fluorescence intensity as percentage of control group (P-gp inhibition) (P-gp)	Fraction of dose excreted into feces as the unchanged form [1]	Fraction of dose excreted into urine as the unchanged form [1]
Cc1cc(O)c2c(c1)C(=O)c1cc(O)cc(O)c1C2=O [emodin]	147.2% ± 12.4		
CC(C)(C(=O)O)c1ccc(C(O)CCCN2CCC(C(O)(c3ccccc3)c3ccccc3)CC2)cc1 (stereo not drawn) [fexofenadine, Fexofenadine hydrochloride]		80%	11%
